Results reported in patent US5326766A, “4-(2-(4-(2-pyridinyloxy)phenyl)ethoxy)quinazoline and analogues thereof” (priority 1992, dated 1994).

What was measured:
[1] = system: Pyricularia oryzae (rice blast); experiment: whole plant or invertebrate; type: in vivo; details: Pyricularia oryzae, foliar, read-out: PYRIOR disease control, host rice; foliar spray; 400 ppm (+++: 100 ppm)
[2] = system: Erysiphe graminis tritici (powdery mildew); experiment: Foliar spray fungicide test, Erysiphe graminis tritici (powdery mildew) on wheat; details: Blumeria graminis, in Triticum aestivum, foliar, read-out: ERYSGT disease control, host wheat, 400 ppm (+++: 100 ppm)
Description: (§3) The test compounds were formulated for application by dissolving 50 mg of the compound into 1.25 ml of solvent. The solvent was prepared by mixing 50 ml of "Tween 20" (polyoxyethylene (20) sorbitan monolaurate emulsifier) with 475 ml of acetone and 475 ml of ethanol. The solvent/compound solution was diluted to 125 ml with deionized water. The resulting formulation contains 400 ppm test chemical. Lower concentrations were obtained by serial dilution with the solvent-surfactant mixture.
(§4) The formulated test compounds were applied by foliar spray. The following plant pathogens and their corresponding plants were employed.
(§5) The formulated technical compounds were sprayed on all foliar surfaces of the host plants to past run-off. Single pots of each host plant were placed on raised, revolving pedestals in a fume hood. Test solutions were sprayed on all foliar surfaces. All treatments were allowed to dry and the plants were inoculated with the appropriate pathogens within 24 hours.
(§6) The effectiveness of test compounds in controlling disease was rated using the following scale.

[3] = system: Leptosphaeria nodorum (glume blotch); experiment: Foliar spray fungicide test, Leptosphaeria nodorum (glume blotch) on wheat; details: Parastagonospora nodorum, in Triticum aestivum, foliar, read-out: LETPNO disease control, host wheat, 400 ppm (+++: 100 ppm)
[4] = system: Puccinia recondita tritici (leaf rust); experiment: Foliar spray fungicide test, Puccinia recondita tritici (leaf rust) on wheat; details: Puccinia recondita, in Triticum aestivum, foliar, read-out: PUCCRT disease control, host wheat, 400 ppm (+++: 100 ppm)
Description: as §3, §4
Puccinia recondita PUCCRT wheat
as §5, §6

[5] = system: Plasmopara viticola (downy mildew); experiment: Foliar spray fungicide test, Plasmopara viticola (downy mildew) on grape; details: for pest or weed control at 400 µg/mL: Plasmopara viticola, foliar, read-out: PLASVI disease control
Description: as §3
The formulated test compounds were applied by foliar spray.
as §5, §6

[6] = system: aster leafhopper (Macrosteles fascifrons); experiment: whole plant or invertebrate; type: in vivo; details: Macrosteles fascifrons, 24 h, 400 ppm, read-out: ALH percent mortality
Description: (§1) The compounds identified in Table I were tested for miticidal and insecticidal activity against eight species. The following abbreviations are used in the Table III:
ALH refers to aster leafhopper
(§2) In conducting evaluations of insecticidal activity, each test compound was formulated as a 400 ppm solution, and this solution was then diluted with water to give lesser concentrations. The 400 ppm solution was prepared by combining 19.2 mL of 0.05% solution of Tween 20 (polyoxyethylene (20) sorbitan monolaurate) in water with a solution of 8 mg of the compound in 0.8 mL of acetone/EtOH (9/1).
Activity against aster leafhopper (Macrosteles fascifrons) was tested as follows. The test was run using concentrations of 400 ppm and 50 ppm. One ounce plastic cups containing a cotton wick was sprayed with 0.4 mL of formulated material using a flat-fan nozzle. The excess moisture was allowed to evaporate. Then five to ten carbon dioxide anesthetized adult leafhoppers were added to each cup. The cups were capped and held at room temperature for 24 hours. Percent mortality was then determined.

[7] = system: beet armyworm (Spodoptera exiqua); experiment: Activity against beet armyworm; type: in vivo; details: Spodoptera, 144 h, 400 ppm; 6 days; read-out: BAW activity (rated on live and dead larvae and size of live larvae)
Description: as §1
BAW refers to beet armyworm
as §2
Activity against beet armyworm (Spodoptera exiqua) was evaluated as follows. The test is run using concentrations of 400 ppm and 50 ppm. A general purpose lepidoptera artificial diet was diluted to half strength with a 5% non nutritive agar. 8 mL of this diet material was dispensed into one ounce diet cups. One hour prior to treatment, 35 to 40 eggs were dispensed onto the diet surface. The cups were then sprayed with formulated material through a flat-fan nozzle. Treated cups were air dried prior to sealing with plastic caps. The cups were held for 6 days at room temperature. Activity was then rated based on the total number of live and dead larvae, and on the size of live larvae.

[8] = system: tobacco budworm (Heliothis virescens); experiment: Activity against tobacco budworm; type: in vivo; details: Heliothis virescens, 144 h, 400 ppm; 6 days; read-out: TBW activity (rated on live and dead larvae and size of live larvae)
Description: as §1
TBW refers to tobacco budworm
as §2
Activity against tobacco budworm (Heliothis virescens) was evaluated as follows. A general purpose lepidoptera artificial diet was diluted to half strength with a 5% non nutritive agar. 8 mL of this diet material was dispensed into each one ounce diet cup. One hour prior to treatment 18 to 20 eggs were dispensed onto the diet surface. The cups were then sprayed with formulated material through a flat-fan nozzle. The test was run using concentrations of 400 ppm and 50 ppm. Treated cups were air dried prior to sealing with plastic caps. The cups were held for 6 days at room temperature. Activity was then rated based on the total number of live and dead larvae, and on the size of live larvae.

[9] = system: two spotted spider mite (Tetranychus urticae); experiment: whole plant or invertebrate; details: 72 h, read-out: TSSM activity (percent based on mites present in plants sprayed with solvent alone), 400 ppm, squash plants, three days after treatment
[10] = system: cotton aphid (Aphis gossypii); experiment: whole plant or invertebrate; details: 72 h, read-out: CA activity (percent based on aphids present in plants sprayed with solvent alone), 400 ppm, squash plants, three days after treatment

Work on `FC(F)(F)c1cnc(Oc2ccc(CCNc3ncnc4cccnc34)cc2)c(Cl)c1` [Compound 2] yielded a pest or weed control at 400 µg/mL [1] of 90 to 100%, a pest or weed control at 400 µg/mL [2] of 90 to 100% and a pest or weed control at 400 µg/mL [3] of 20 to 89%. For the same molecule, the pest or weed control at 400 µg/mL [4] was 90 to 100% and the pest or weed control at 400 µg/mL [5] was 90 to 100%.

`Fc1cccc2c(OCCc3ccc(Oc4ncc(Cl)cc4Cl)cc3)ncnc12` [Compound 41] gave a mortality at 400 ppm [6] of 100%, a pest or weed control at 400 ppm [7] of 100% and a pest or weed control at 400 µg/mL [1] of 90 to 100%. The pest or weed control at 400 ppm [8] was 100%, the pest or weed control at 400 µg/mL [2] was 90 to 100% and the pest or weed control at 400 µg/mL [3] was 20 to 89%. For the same molecule, the mortality at 400 ppm [9] was 100%, the pest or weed control at 400 µg/mL [4] was 90 to 100% and the PLASVI disease control ([5]; host grape, foliar spray, 400 ppm (+++: 100 ppm)) was “++ +”. The mortality at 400 ppm [10] was 100%.

Molecule `O=[N+]([O-])c1cccnc1Oc1ccc(CCOc2ncnc3c(F)cccc23)cc1` [Compound 8] has a pest or weed control at 400 µg/mL [1] of 20 to 89%, a pest or weed control at 400 µg/mL [2] of 90 to 100% and a pest or weed control at 400 µg/mL [3] of 20 to 89%. The pest or weed control at 400 µg/mL [4] was 20 to 89% and the pest or weed control at 400 µg/mL [5] was 90 to 100%.

In the case of `Fc1cccc2c(OCCc3ccc(Oc4ncc(Cl)cn4)cc3)ccnc12` [Compound 48], the pest or weed control at 400 µg/mL [1] is reported as 0 to 19%, the pest or weed control at 400 µg/mL [2] is reported as 20 to 89% and the pest or weed control at 400 µg/mL [3] is reported as 0 to 19%. For the same molecule, the pest or weed control at 400 µg/mL [5] was 20 to 89%.

Molecule `FC(F)(F)c1ccc(Oc2ccc(CCNc3ncnc4ncccc34)cc2)nc1` [Compound 31] has a pest or weed control at 400 µg/mL [1] of 20 to 89%, a pest or weed control at 400 µg/mL [2] of 20 to 89% and a pest or weed control at 400 µg/mL [3] of 20 to 89%. The pest or weed control at 400 µg/mL [4] was 90 to 100% and the pest or weed control at 400 µg/mL [5] was 90 to 100%.

Work on `Fc1cccc2c(OCCc3ccc(Oc4ccc(Cl)cn4)cc3)ncnc12` [Compound 17] yielded a pest or weed control at 400 µg/mL [1] of 90 to 100%, a pest or weed control at 400 µg/mL [2] of 90 to 100% and a pest or weed control at 400 µg/mL [3] of 20 to 89%. It also gave a pest or weed control at 400 µg/mL [4] of 90 to 100% and a pest or weed control at 400 µg/mL [5] of 90 to 100%.

In the case of `Fc1cccc2c(OCCc3ccc(Oc4cccc(C(F)(F)F)n4)cc3)ncnc12` [Compound 36], the pest or weed control at 400 µg/mL [1] is reported as 90 to 100%, the pest or weed control at 400 µg/mL [2] is reported as 90 to 100% and the pest or weed control at 400 µg/mL [3] is reported as 20 to 89%. The pest or weed control at 400 µg/mL [4] was 90 to 100% and the pest or weed control at 400 µg/mL [5] was 90 to 100%.

Molecule `Fc1cccc2c(OCCc3ccc(Oc4ncccc4C(F)(F)F)cc3)ncnc12` [Compound 10] has a pest or weed control at 400 µg/mL [1] of 90 to 100%, a pest or weed control at 400 µg/mL [2] of 90 to 100% and a pest or weed control at 400 µg/mL [3] of 90 to 100%. It also gave a pest or weed control at 400 µg/mL [4] of 90 to 100% and a pest or weed control at 400 µg/mL [5] of 90 to 100%.

With `O=[N+]([O-])c1ccc(Oc2ccc(CCNc3ncnc4c(F)cccc34)cc2)nc1` [Compound 24] the pest or weed control at 400 µg/mL [1] was 20 to 89%, the pest or weed control at 400 µg/mL [2] was 0 to 19% and the pest or weed control at 400 µg/mL [3] was 20 to 89%. The pest or weed control at 400 µg/mL [4] was 20 to 89% and the pest or weed control at 400 µg/mL [5] was 90 to 100%.

Molecule `FC(F)(F)c1ccnc(Oc2ccc(CCOc3ncnc4ccccc34)cc2)c1` [Compound 13] has a mortality at 400 ppm [6] of 100%, a pest or weed control at 400 ppm [7] of 100% and a pest or weed control at 400 µg/mL [1] of 20 to 89%. For the same molecule, the pest or weed control at 400 ppm [8] was 100%, the pest or weed control at 400 µg/mL [2] was 90 to 100% and the pest or weed control at 400 µg/mL [3] was 90 to 100%. It also gave a mortality at 400 ppm [9] of 100%, a pest or weed control at 400 µg/mL [4] of 90 to 100% and a pest or weed control at 400 µg/mL [5] of 90 to 100%. The mortality at 400 ppm [10] was 100%.

Molecule `N#Cc1cccnc1Oc1ccc(CCOc2ncnc3c(F)cccc23)cc1` [Compound 3] has a pest or weed control at 400 µg/mL [1] of 20 to 89%, a pest or weed control at 400 µg/mL [2] of 20 to 89% and a pest or weed control at 400 µg/mL [3] of 20 to 89%. It also gave a pest or weed control at 400 µg/mL [4] of 20 to 89% and a pest or weed control at 400 µg/mL [5] of 90 to 100%.
